Read-outs that look alike come from different tables or passages of the source.
Assays:
[1] = system: HCT116 (human colon cancer); assay: CCK-8 cell viability assay on HCT116 cells; type: cell-based; details: HCT-116, 48 h
Description: (§1) The plate is incubated for 48 hours.
(§2) CCK-8 solution is added directly to the cells.

[2] = system: MDA-MB-231 (MDA 231, human breast adenocarcinoma); assay: CCK-8 cell viability assay on MDA-MB-231 cells; type: cell-based
Description: as §1, §2

[3] = Pharmacokinetic properties in a mouse; details: for Oral Bioavailability (% F): i.v. 2 mg/kg and oral 10 mg/kg; for AUC(0-inf): plasma, po, 10 mg/kg
Description: (§3) Each compound was formulated and administered to a mouse. Blood was taken at specific time points (0.25 h, 0.5 h, 1 h, 2 h, 4 h, 8 h, and 24 h) and evaluated for the drug administered by LC/MS. Each compound was administered i.v. at 2 mg/kg and also evaluated by oral administration (gavage) at 10 mg/kg (Formulation: 5% DMSO+95% HP-β-CD (20%, W/V) yielding a solution). […] In addition, percent oral bioavailability or % F is a measure of the percent of the drug given orally that is in systemic circulation in the plasma.

in vivo = details: mouse, po, 10 mg/kg
Description: as §3

[4] = system: pAkt (phosphorylated form of Akt); assay: Western blots on A549 cells after 72 hours; details: western blot
Description: The following kinases were examined: Akt, pAkt, Mek1, Mek2, Erk2, pErk2 and c-Myc. In addition, Induced myeloid leukemia cell differentiation protein (Mcl-1) was also evaluated.

[5] = HCT116, 48 hours incubation, CCK-8, read-out: IC50 (uM, HCT116)
[6] = MDA-MB-231, 48 hours incubation, CCK-8, read-out: IC50 (uM, MDA 231)

| SMILES | IC50 [1, 5] [µM] | IC50 [2, 6] [µM] | other results |
| --- | --- | --- | --- |
| O=C1C2=C(CCN(Cc3cccc(C(F)(F)F)c3)C2)N2CCN=C2N1Cc1ccc(C(F)(F)F)cc1 [Compound 24] | 0.087 | 0.22 | – |
| C#Cc1cccc(CN2CCC3=C(C2)C(=O)N(Cc2ccc(OC(F)(F)F)cc2)C2=NCCN23)c1 [Compound 8] | 1.8 | 0.88 | – |
| O=C1C2=C(CCN(Cc3ccc(F)cc3)C2)N2CCN=C2N1Cc1ccc(Br)cc1 [Compound 23] | 0.36 | 0.61 | – |
| Cc1ccccc1CN1C(=O)C2=C(CCN(Cc3ccccc3Br)C2)N2CCN=C12 [Compound 10] | > 25 | > 25 | – |
| Cc1ccccc1CN1C(=O)C2=C(CCN(Cc3cccc(Br)c3)C2)N2CCN=C12 [Compound 11] | 0.72 | 0.74 | – |
| Cc1ccccc1CN1C(=O)C2=C(CCN(Cc3ccccc3)C2)N2CCN=C12 [TIC10, 11-benzyl-7-[(2-methylphenyl)methyl]-2,5,7,11-tetraazatricyclo[7.4.0.0^2,6]trideca-1 (9),5-dien-8-one, reference compound] | – | – | IC50 ([1]; read-out: IC50 (uM, HCT116)): 2.8 µM; IC50 ([2]; MDA-MB-231, 48 h, read-out: IC50 (uM, MDA 231)): 3 µM; AUC(0-inf) (in vivo): 3.1 ng·h/mL; Oral Bioavailability (% F) [3]: 1.2 % F; concentration providing similar reductions in pAkt [4]: 10 uM |
| O=C1C2=C(CCN(Cc3ccccc3)C2)N2CCN=C2N1Cc1cccc(C(F)(F)F)c1 [Compound 7] | 0.24 | 0.4 | – |
| C#Cc1cccc(CN2CCC3=C(C2)C(=O)N(Cc2ccc(Br)cc2)C2=NCCN23)c1 [Compound 13] | 0.28 | 0.28 | – |
| O=C1C2=C(CCN(Cc3cccc(F)c3)C2)N2CCN=C2N1Cc1ccc(C(F)(F)F)cc1 [Compound 18] | 0.022 | 0.078 | Oral Bioavailability (% F) [3]: 27 % F; AUC(0-inf) [3]: 823 ng·h/mL |
| O=C1C2=C(CCN(Cc3ccccc3)C2)N2CCN=C2N1Cc1ccc(OC(F)(F)F)cc1 [Compound 20] | 0.37 | 0.82 | – |
| O=C1C2=C(CCN(Cc3ccccc3)C2)N2CCN=C2N1Cc1ccc(Cl)c(Cl)c1 [Compound 9] | 0.08 | 0.12 | – |
| O=C1C2=C(CCN(Cc3ccccc3)C2)N2CCN=C2N1Cc1ccc(C(F)(F)F)cc1 [Compound 2] | 0.03 | 0.05 | concentration providing similar reductions in pAkt [4]: 0.037 uM |
| O=C1C2=C(CCN(Cc3cccs3)C2)N2CCN=C2N1Cc1ccc(Cl)cc1 [Compound 25] | 1.7 | 0.71 | – |
| O=C1C2=C(CCN(Cc3ccsc3)C2)N2CCN=C2N1Cc1ccc(Cl)cc1 [Compound 26] | 0.57 | 0.31 | – |
| O=C1C2=C(CCN(Cc3cccc(OC(F)(F)F)c3)C2)N2CCN=C2N1Cc1ccc(C(F)(F)F)cc1 [Compound 21] | 0.37 | 0.27 | – |

More lines, main results first:

| IC50 [1, 5] [µM] | IC50 [2, 6] [µM] | SMILES | other results |
| --- | --- | --- | --- |
| 0.082 | 0.069 | C#Cc1cccc(CN2CCC3=C(C2)C(=O)N(Cc2ccc(Cl)cc2)C2=NCCN23)c1 [Compound 4] | Oral Bioavailability (% F) [3]: 33 % F; AUC(0-inf) [3]: 255 ng·h/mL |
| 0.007 | 0.024 | N#Cc1cccc(CN2CCC3=C(C2)C(=O)N(Cc2ccc(C(F)(F)F)cc2)C2=NCCN23)c1 [Compound 15] | – |
| 1.3 | 0.069 | Cc1cccc(CN2C(=O)C3=C(CCN(Cc4ccccc4)C3)N3C2=NC2CCCCC23)c1 (stereo not drawn) [Compound 5] | – |
| 1.8 | 3.4 | C#Cc1ccc(CN2CCC3=C(C2)C(=O)N(Cc2ccc(Cl)cc2)C2=NCCN23)cc1 [Compound 22] | – |
| 0.011 | 0.024 | N#Cc1cccc(CN2CCC3=C(C2)C(=O)N(Cc2ccc(Cl)cc2)C2=NCCN23)c1 [Compound 14] | – |
| 1.4 | 1.2 | O=C1C2=C(CCN(Cc3ccccc3)C2)N2CCN=C2N1Cc1ccccc1C(F)(F)F [Compound 6] | – |
| 0.22 | 0.22 | C#Cc1cccc(CN2CCC3=C(C2)C(=O)N(Cc2ccc(C(F)(F)F)cc2)C2=NCCN23)c1 [Compound 12] | – |
| 0.089 | – | [2H]c1c([2H])c([2H])c(C([2H])([2H])N2CCC3=C(C2)C(=O)N(Cc2ccc(C(F)(F)F)cc2)C2=NCCN23)c([2H])c1[2H] [Compound 19] | Oral Bioavailability (% F) [3]: 60 % F; AUC(0-inf) [3]: 604 ng·h/mL |
| 0.023 | 0.064 | O=C1C2=C(CCN(Cc3cccc(F)c3)C2)N2CCN=C2N1Cc1ccc(Br)cc1 [Compound 17] | – |

— US11091483B2, “Protein kinase regulators” (Nanjing Gator Meditech Company, Ltd., priority 2016, dated 2021)
